{"source": "patent US20230126447A1", "about": "“OCULAR DRUG DEPOT FOR COMPLEMENT-MEDIATED DISORDERS” (priority 2020, published 2023)", "key": {"[1]": {"assay": "In vitro binding to melanin from Sepia officinalis", "settings": "S. officinalis melanin 50 μg/mL, PBS, 37° C., 1 hour", "procedure": "(§1) […] The melanin solution was stored in the dark at 37° C. until use.\n(§2) Immediately after the assay, samples were added to an equal volume of warm PBS, aliquots (3 μL each) were removed, added to 100 μL of acetonitrile containing carbutamide as internal standard, and then diluted with water (197 μL). These time-zero samples, prepared in PBS only, were also used as calibration standards.\n(§3) The assay plates containing samples with and without melanin were incubated in the dark with shaking at 37° C. for 1 hour. Following incubation, the samples were centrifuged for 15 minutes at approximately 4000 rpm at 37° C. to sediment the melanin. Sample supernatant (3 μL) was added to 100 μL of acetonitrile containing the internal standard and then diluted with water (197 μL).\n(§4) The column was set to a temperature of 55° C. […]\n(§5) Analytes and internal standards were detected using an Applied Biosystems Sciex API-5500 triple quadrupole mass spectrometer with Agilent 1260 Infinity Binary Pump and Apricot Designs ADDA High-Speed Dual Arm Autosampling System. The instrument was equipped with an electrospray ionization source (600° C.) operated in the positive ion mode. Analytes and internal standards for all samples were monitored in the multiple-reaction-monitoring scan mode."}, "[2]": {"assay": "Stability under melanin binding assay conditions", "settings": "PBS, 37° C., 1 hour vs time zero", "procedure": "as §1, §3\n% Stability=Mean Total Conc. (μM) after 1 Hour/Mean Total Conc. (μM) at Time Zero×100%"}, "[3]": {"assay": "In vitro binding to synthetic melanin", "settings": "synthetic melanin 50 μg/mL, PBS, 37° C., 1 hour", "procedure": "as §1, §2, §3, §4, §5"}, "[4]": {"assay": "QWBA tissue distribution of [14C] Compound 2, Wistar Hannover rats (PO)", "type": "in vivo", "settings": "20 mg/kg PO", "procedure": "(§6) The study was conducted to determine the tissue distribution of [^14C] Compound 2-derived radioactivity following a single oral gavage (PO) administration of 20 mg/kg (100 μCi/kg) of [^14C] […] Compound 2 to a male Long-Evans rat using quantitative whole body autoradiography (QWBA).\n(§7) A total of ten male Long-Evans and three male Wistar Hannover rats were administered a single PO dose of [^14C] […] One male Long-Evans rat was administered a single IV dose of [^14C] […] (See Table 3). One animal per group per strain was anesthetized by inhalation of isoflurane gas at designated time points post-dose, followed by blood collection via cardiac puncture and euthanasia by isoflurane overdose. Each carcass was then frozen in a dry ice/hexane bath. Blood and plasma samples were assayed for total radioactivity (TRA) concentrations by liquid scintillation counting (LSC). The tissue concentrations of TRA were determined using validated QWBA techniques. Pharmacokinetic parameters of derived radioactivity in blood, plasma, and tissues were calculated, to the extent possible, using Phoenix© WinNonlin® (Version 6.3, Pharsight Corporation; Mountain View, Calif.)."}, "[5]": {"assay": "QWBA tissue distribution of [14C] Compound 2, Long-Evans rats (PO, IV)", "type": "in vivo", "procedure": "as §6, §7"}, "CFD": {"target": "CFD (Homo sapiens, UniProt P00746)", "sequence (P00746 26-253)": "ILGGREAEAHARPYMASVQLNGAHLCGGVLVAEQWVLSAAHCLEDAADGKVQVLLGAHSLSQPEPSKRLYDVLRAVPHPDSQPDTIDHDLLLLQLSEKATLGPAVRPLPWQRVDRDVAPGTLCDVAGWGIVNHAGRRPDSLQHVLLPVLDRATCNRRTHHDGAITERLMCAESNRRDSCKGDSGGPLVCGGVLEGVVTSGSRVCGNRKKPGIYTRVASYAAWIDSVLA", "assay": "Inhibitory effect on CFD", "type": "biochemical"}, "[6]": {"settings": "male Wistar Hannover rats, 1 h post-dose"}, "[7]": {"settings": "male Wistar Hannover rats, 24 h post-dose"}, "[8]": {"settings": "male Long-Evans rats, 20 mg/kg PO"}}, "note": "pIC50: −log10 of the molar value."}
{"smiles": "CCN(CC)CCCC(C)Nc1ccnc2cc(Cl)ccc12", "note": "(stereo not shown) [Chloroquine, chloroquine, reference compound]", "values": [{"measurement": "Bmax (binding capacity)", "setting": "[1]", "value": 280, "unit": "nmol/mg melanin"}, {"measurement": "Mean Stability", "setting": "[2]", "value": 87.3, "unit": "%"}, {"measurement": "Bmax (binding capacity)", "setting": "[3]", "value": 308, "unit": "nmol/mg melanin"}]}
{"smiles": "CC(=O)c1nn(CC(=O)N2[C@H](C(=O)Nc3nc(Br)ccc3C)C[C@@]3(C)C[C@@H]23)c2ccc(-c3cnc(C)nc3)cc12", "note": "[Compound 2, (1R,3S,5R)-2-(2-(3-acetyl-5-(2-methylpyrimidin-5-yl)-1H-indazol-1-yl)acetyl)-N-(6-bromo-3-methylpyridin-2-yl)-5-methyl-2-azabicyclo[3.1.0]hexane-3-carboxamide]", "values": [{"measurement": "Radioactivity in the central nervous system", "setting": "[4]; Wistar Hannover rat, 1 h post-dose", "value": 0.179, "unit": "μg equiv/g tissue"}, {"measurement": "Tmax, all tissues", "setting": "[4]; male Wistar Hannover rats", "value": 1, "unit": "h"}, {"measurement": "Tissue to plasma concentration ratio, brain", "setting": "[4]; [6]", "value": 0.04}, {"measurement": "Tissue to plasma concentration ratio, cecum mucosa", "setting": "[4]; [6]", "value": 0.96}, {"measurement": "Tissue to plasma concentration ratio, kidney medulla", "setting": "[4]; [6]", "value": 12.6}, {"measurement": "Tissue to plasma concentration ratio, stomach wall non-glandular", "setting": "[4]; [6]", "value": 1.00}, {"measurement": "Tissue to plasma ratio, bone marrow", "setting": "[4]; [7]", "value": 2.90}, {"measurement": "Tissue to plasma ratio, stomach wall non-glandular", "setting": "[4]; [7]", "value": 100}, {"measurement": "Total plasma radioactivity", "setting": "[4]; male Wistar Hannover rats, 168 h post-dose", "value": "BLQ"}, {"measurement": "Radioactivity in the central nervous system", "setting": "[5]; male Long-Evans rat, 5 mg/kg IV, […] post-dose", "value": 0.201, "unit": "μg equiv/g tissue"}, {"measurement": "Tissue:plasma AUC0-t ratio, majority of tissues", "setting": "[5]; [8]", "value": "greater than 1.00"}, {"measurement": "Tmax, majority of tissues", "setting": "[5]; [8]", "value": 1, "unit": "h"}, {"measurement": "Total plasma radioactivity", "setting": "[5]; male Long-Evans rats, 20 mg/kg PO, 48 h post-dose", "value": "BLQ"}, {"measurement": "Blood concentration of radioactivity", "setting": "[5]; male Long-Evans rats, 20 mg/kg PO, 72 h post-dose", "value": "BLQ"}, {"measurement": "Concentration of radioactivity, eye and uveal tract", "setting": "[5]; male Long-Evans rats, 20 mg/kg PO, 840 h post-dose", "value": 0.212, "unit": "μg equiv/g tissue"}]}
{"smiles": "CC(=O)c1cn(CC(=O)N2[C@H](C(=O)Nc3nc(Br)ccc3C)C[C@@]3(C)C[C@@H]23)c2c(C)cc(-c3cnc(C)nc3)cc12", "note": "[Compound 3, (1R,3S,5R)-2-(2-(3-acetyl-7-methyl-5-(2-methylpyrimidin-5-yl)-1H-indol-1-yl)acetyl)-N-(6-bromo-3-methylpyridin-2-yl)-5-methyl-2-azabicyclo[3.1.0]hexane-3-carboxamide]", "values": [{"measurement": "pIC50", "setting": "CFD", "value": 7.49}]}
